According to paper PMC3280530, “Marine Compounds Selectively Induce Apoptosis in Female Reproductive Cancer Cells but Not in Primary-Derived Human Reproductive Granulosa Cells” (Marine Drugs, 2012):

Experiments:
JAr cells [1] = assay: Crystal violet cell viability assay; assay type: cell-based; conditions: Homo sapiens
Procedure: (§1) For cell assays, the D. orbita fractions were prepared fresh on the day of the experiment by dissolving in dimethyl sulfoxide (DMSO; 100%) at 100× the final concentration. These were diluted to a range of working concentrations (0.001–0.5 mg/mL) in complete cell assay medium to give a final working concentration per well of 1% DMSO. All samples were filtered through a […] (Sartorius) filter before use.
(§2) The primary-derived granulosa cells, along with the KGN, JAr and OVCAR-3 cell lines (10,000 cells per well) were plated into sterile white (opaque) 96-well plates (Interpath) and clear sterile 96-well plates (Interpath) in 0.1 mL per well of complete cell culture medium for 24 h (granulosa, KGN and OVCAR-3 cells) and 2 h (for JAr cells) to allow cell adherence. Standard curves of 0–40,000 cells per well (primary granulosa cells) and 0–80,000 cells per well (for KGN, JAr and OVCAR-3 cells) in six replicate wells were plated into clear 96-well plates, alongside the test plates. After the initial cell adherence period, spent media (media deficient of nutrients and serum) were discarded and primary-derived granulosa, KGN, JAr and OVCAR-3 cells were treated with the two D. orbita fractions at concentrations of 0.005, 0.01, 0.05, 0.1, and 0.5 mg/mL in a final volume of 0.1 mL per well in triplicate wells, for 4 and 24 h at 37 °C + 5% CO2. 1 h prior to the end of eachincubation period two positive controls were added; one for apoptosis (1 μg/mL DNase I), and the second for necrosis (2 μL per well of a cell lysis buffer; Promega). This experiment was repeated on three separate occasions (n = 3).
(§3) After 4 and 24 h exposure to D. orbita fractions in clear 96-well plates, media and all dead unattached cells were removed. The remaining adherent cells were rinsed with sterile 1× PBS and the crystal violet assay was performed. The crystal violet assay is a colourmetric assay in which only the nuclei of live cells take up the crystal violet stain (0.5%). The absorbance in the wells of the crystal violet plates were read on an automatic spectrophotometer at 570 nm, with reference absorbance 630 nm using KC Junior Software. This assay was repeated on three separate occasions (n = 3).

KGN cells [2] = assay: Crystal violet cell viability assay; assay type: cell-based; conditions: Homo sapiens
Procedure: as §1, §2, §3

OVCAR-3 cells [3] = assay: Crystal violet cell viability assay; assay type: cell-based; conditions: Homo sapiens, OVCAR-3, crystal violet
Procedure: as §1, §2, §3

[4] = tested on: primary-derived human reproductive granulosa cells (HGC); assay: Crystal violet cell viability assay; assay type: cell-based
Procedure: as §1, §2, §3

JAr cells [5] = assay: MTT cell viability assay; assay type: cell-based; conditions: Homo sapiens
Procedure: as §1, §2
(§4) After 4, 24, 48 and 72 h exposure to D. orbita fractions in clear 96-well plates, media and all dead unattached cells were removed. The remaining adherent cells were rinsed with sterile 1× PBS and the MTT assay was performed. The MTT assay measures the reduction of a yellow substrate to formazan, a purple precipitate, by the mitochondrial succinate dehydrogenase enzymes. A solution of 0.5 mg/mL MTT (was added to wells in a final volume of 0.1 mL. The plates were then incubated for 1 h (JAr cells) and 18 h (KGN, OVCAR-3 and GC cells) at 37 °C and 5% CO2. At the end of the incubation period, 80 μL/well 20% SDS in 0.02 M HCl was added and plate was incubated for a further 1 h at room temperature in the dark. The absorbance was the measured at 570 nm, with reference absorbance 630 nm, using an automatic spectrophotometer using KC Junior software. This assay was repeated on three separate occasions (n = 3).

[6] = tested on: primary-derived human reproductive granulosa cells (HGC); assay: MTT cell viability assay; assay type: cell-based; conditions: for IC50: Homo sapiens, HGC, MTT
Procedure: as §1, §2, §4

KGN cells [7] = assay: MTT cell viability assay; assay type: cell-based, human
Procedure: as §1, §2, §4

OVCAR-3 cells [8] = assay: MTT cell viability assay; assay type: cell-based, human; conditions: OVCAR-3, MTT
Procedure: as §1, §2, §4

[9] = tested on: primary-derived human reproductive granulosa cells (HGC); assay: TUNEL staining (apoptosis); assay type: cell-based; conditions: for TUNEL positive cells: 4 h, 0.05 mg/mL; for TUNEL labelled cells: 24 h, 0.005 mg/mL
Procedure: Primary-derived human granulosa cells and KGN cells were plated into Nunc Lab-Tek II CC2 Chamber Slides at 30,000 cells per chamber well in a final volume of 0.3 mL of DMEM/F12 + 10% FBS complete cell culture medium and incubated for 24 h at 37 °C + 5% CO2 to allow cell attachment to slides. Spent media (media deficient of nutrients and serum) and non-viable and non-adherent cellswere discarded and replaced with the D. orbita fractions at concentrations of 0.005, 0.01 and 0.05 mg/mL in a final volume of 0.3 mL of DMEM/F12 + 10% medium. A medium-only and a 1% DMSO control were also added before incubation for 4 and 24 h at 37 °C + 5% CO2. This experiment was repeated on three separate occasions (n = 3). The supernatant was removed and the cells rinsed with PBS before fixation with 4% paraformaldehyde for 25 min at room temperature. The DeadEnd™ Fluorometric TUNEL System (Promega) was performed as recommended by the manufacturer. Briefly the cells were treated with 0.2% Triton X-100 for 5 min, to permeablize the cells. The cells were rinsed in PBS before the addition of 50 μL of rTdT incubation buffer (Promega) at 37 °C for 1 h, protected from light. Cells were rinsed in 2× sodium chloride and sodium citratesolution (Promega) for 15 min at room temperature (25 °C) then rinsed again with PBS. The cells were counter-stained with 1 μg/mL propidium iodide (PI). A separate positive control slide of 1 μg/mL DNase I, and a negative control slide of buffer without rTdT, was prepared in conjunction with treatment slides. Cells were examined immediately and photographed at 200 and 400× magnification using a Fluorescence Olympus BX50 Microscope with filter Chroma 31001 at excitation 450–495 nm, Dichroic 505 and emission 515–555 nm for the green fluorescein of TUNEL and Chroma 31002 at excitation 515–550 nm, Dichroic 565 and emission 575–615 nm for the red fluorescence of the PI staining. Photomicrographs of four fields of view were taken for each treatment in each repeat of theassay and the number of TUNEL positive nuclei, stained bright green, were calculated as a fraction of the total number of PI stained nuclei, stained bright red, in each image. The average of the four fields was then calculated.

[10] = Homo sapiens, OVCAR-3, 4 h, 4 h
[11] = Homo sapiens, OVCAR-3, 24 h, 24 h
[12] = Homo sapiens, OVCAR-3, 48 h, 48 h
[13] = Homo sapiens, OVCAR-3, 72 h, 72 h

O=C1Nc2cc(Br)ccc2C1=O [6-Bromoisatin, 6-bromoisatin] was tested, and the IC50 (JAr cells [1]; 4 h) was 223 µM, the IC50 (JAr cells [1]; 24 h) was 178 µM and the IC50 (KGN cells [2]; 4 h) was 892 µM. For the same compound, the IC50 (KGN cells [2]; 24 h) was 223 µM, the IC50 (OVCAR-3 cells [3]; 4 h) was 446 µM and the IC50 (OVCAR-3 cells [3]; 24 h) was 268 µM. For the same compound, the IC50 ([4]; 4 h) was greater than 2230 µM, the IC50 ([4]; 24 h) was greater than 2230 µM and the IC50 (JAr cells [5]; 4 h) was 223 µM. For the same compound, the IC50 (JAr cells [5]; 24 h) was 446 µM, the IC50 (JAr cells [5]; 48 h) was 446 µM and the IC50 ([6]; 4 h) was greater than 4460 µM. For the same compound, the IC50 ([6]; 24 h) was greater than 4460 µM, the IC50 ([6]; 48 h) was 1780 µM and the IC50 ([6]; 72 h) was 2230 µM. For the same compound, the IC50 (KGN cells [7]; 72 h) was less than 22 µM, the IC50 (KGN cells [7]; Homo sapiens, 4 h) was 178 µM and the IC50 (KGN cells [7]; Homo sapiens, 24 h) was 446 µM. The IC50 (KGN cells [7]; Homo sapiens, 48 h) was 22 µM, the IC50 (KGN cells [7]; Homo sapiens, 72 h) was 22 µM and the IC50 (OVCAR-3 cells [8]; [10]) was 402 µM. For the same compound, the IC50 (OVCAR-3 cells [8]; [11]) was 446 µM, the IC50 (OVCAR-3 cells [8]; [12]) was 89 µM and the IC50 (OVCAR-3 cells [8]; [13]) was 22 µM. It also gave an IC50 (OVCAR-3 cells [8]; 72 h) of less than 22 µM, a TUNEL positive cells [9] of 27% and a TUNEL labelled cells [9] of 10%.
In the case of CSC1=Nc2cc(Br)ccc2C1=O [Tyrindoleninone, tyrindoleninone], the IC50 (JAr cells [1]; 4 h) is reported as 234 µM, the IC50 (JAr cells [1]; 24 h) is reported as 195 µM and the IC50 (KGN cells [2]; 4 h) is reported as 156 µM. For the same compound, the IC50 (KGN cells [2]; 24 h) was 156 µM, the IC50 (OVCAR-3 cells [3]; 4 h) was 313 µM and the IC50 (OVCAR-3 cells [3]; 24 h) was 352 µM. It also gave an IC50 ([4]; 4 h) greater than 1950 µM, an IC50 ([4]; 24 h) greater than 1950 µM and an IC50 (JAr cells [5]; 4 h) of 39 µM. It also gave an IC50 (JAr cells [5]; 24 h) of 117 µM, an IC50 (JAr cells [5]; 48 h) of 78 µM and an IC50 ([6]; 4 h) of 3520 µM. The IC50 ([6]; 24 h) was 1560 µM, the IC50 ([6]; 48 h) was 1560 µM and the IC50 ([6]; 72 h) was 1560 µM. For the same compound, the “IC50 values fold lower for all three reproductive cancer cell lines than for the HGC” value ([6]; after 24, 48 and 72 h treatment, KGN, JAr, OVCAR-3 vs HGC) was “approximately 10 fold”, the IC50 (KGN cells [7]; Homo sapiens, 4 h) was 39 µM and the IC50 (KGN cells [7]; Homo sapiens, 24 h) was 78 µM. The IC50 (KGN cells [7]; Homo sapiens, 48 h) was 20 µM, the IC50 (KGN cells [7]; Homo sapiens, 72 h) was less than 20 µM and the IC50 (OVCAR-3 cells [8]; [10]) was 156 µM. The IC50 (OVCAR-3 cells [8]; [11]) was 234 µM, the IC50 (OVCAR-3 cells [8]; [12]) was 31 µM and the IC50 (OVCAR-3 cells [8]; [13]) was less than 20 µM. It also gave a TUNEL positive cells [9] of 31% and a TUNEL labelled cells [9] of 16%.
